Reference: the NIST ThermoML archive (doi:10.1016/j.jct.2009.04.009)
Numbers after ± are expanded uncertainties.

Conditions: Liquid

SMILES: CC(C)CO [2-methyl-1-propanol]
- vapor or sublimation pressure (336.9 K, Recirculating still): 15 ± 0.2 kPa
- vapor or sublimation pressure (351.2 K, Recirculating still): 30 ± 0.3 kPa
- vapor or sublimation pressure (357.7 K, Recirculating still): 40 ± 0.4 kPa
- vapor or sublimation pressure (362.9 K, Recirculating still): 50 ± 0.5 kPa
- vapor or sublimation pressure (367.4 K, Recirculating still): 60 ± 0.5 kPa
- vapor or sublimation pressure (371.3 K, Recirculating still): 70 ± 0.6 kPa
- vapor or sublimation pressure (374.7 K, Recirculating still): 80 ± 0.7 kPa
- vapor or sublimation pressure (377.8 K, Recirculating still): 90 ± 0.8 kPa
- vapor or sublimation pressure (380.7 K, Recirculating still): 100 ± 0.8 kPa
- vapor or sublimation pressure (383.3 K, Recirculating still): 110 ± 0.9 kPa
- vapor or sublimation pressure (385.8 K, Recirculating still): 120 ± 1 kPa
- vapor or sublimation pressure (388 K, Recirculating still): 130 ± 1.1 kPa
- vapor or sublimation pressure (390.2 K, Recirculating still): 140 ± 1.1 kPa
- vapor or sublimation pressure (392.2 K, Recirculating still): 150 ± 1.2 kPa

SMILES: CC(C)CCO [3-methylbutan-1-ol]
- vapor or sublimation pressure (357.5 K, Recirculating Still): 15 ± 0.2 kPa
- vapor or sublimation pressure (367.2 K, Recirculating Still): 23.5 ± 0.2 kPa
- vapor or sublimation pressure (374.4 K, Recirculating Still): 32 ± 0.3 kPa
- vapor or sublimation pressure (380.1 K, Recirculating Still): 40.5 ± 0.4 kPa
- vapor or sublimation pressure (384.8 K, Recirculating Still): 49 ± 0.4 kPa
- vapor or sublimation pressure (389.1 K, Recirculating Still): 57.5 ± 0.5 kPa
- vapor or sublimation pressure (392.8 K, Recirculating Still): 66 ± 0.6 kPa
- vapor or sublimation pressure (402 K, Recirculating Still): 91.5 ± 0.7 kPa
- vapor or sublimation pressure (407 K, Recirculating Still): 108.5 ± 0.8 kPa
- vapor or sublimation pressure (409.3 K, Recirculating Still): 117 ± 0.9 kPa
- vapor or sublimation pressure (411.4 K, Recirculating Still): 125.5 ± 1 kPa
- vapor or sublimation pressure (413.5 K, Recirculating Still): 134 ± 1 kPa
- vapor or sublimation pressure (415.4 K, Recirculating Still): 142.5 ± 1.1 kPa
- vapor or sublimation pressure (417.3 K, Recirculating Still): 151 ± 1.1 kPa
- vapor or sublimation pressure (419.2 K, Recirculating Still): 159.5 ± 1.2 kPa
- vapor or sublimation pressure (420.9 K, Recirculating Still): 168 ± 1.3 kPa
- vapor or sublimation pressure (422.4 K, Recirculating Still): 176.5 ± 1.3 kPa
